# Test results from patent publication US5482967A, “Condensed heterocyclic compounds, their production and use” (Takeda Chemical Industries, Ltd., priority 1992, dated 1996).
# Biological target: substance P receptor (Homo sapiens, UniProt P25103)
# Assay: Radioligand receptor binding inhibitory assay using receptor from human lymphoblast cells (IM-9), 125I-BHSP
# Details: IM-9 receptor, 25° C., 30 minutes
# Experimental: The method of A. Margaret et al. [Molecular Pharmacology 42, 458 (1992)] was modified and used. The receptor was prepared from human lymphoblast cells (IM-9). IM-9 cells were grown in 175 cm^2 tissue culture flasks (100 ml×10) at a density approximately 2×10^5 /ml of RPMI 1640 with L-glutamine, 10% (V/V) heat inactivated fetal calf serum, penicillin (100 u/ml), and streptomycin (100 μg/ml) at 37° C. in 5% CO2 /95% air for 3 days. IM-9 cells were obtained by centrifugation at 500×g for 5 minutes at 5° C. The pellet obtained was washed once with phosphate buffer (Flow Laboratories, CAT No. 28-103-05), homogenized using Polytron homogenizer (Kinematika, Germany) in 30 ml of 50 mM Tris-HCl buffer containing 120 mM NaCl, 5 mM KCl, 2 μg/ml phenylmethyl sulfonyl fluoride, and 1 mM ethylenediamine tetra-acetic acid and then centrifuged at 40,000×g for 20 minutes. The residue was washed twice with 30 ml of buffer described above, and preserved frozen (-80° C.).
# The above specimen was suspended in a reaction buffer (50 mM Tris-HCl buffer (pH 7.4), 0.02% bovine serum albumin, 1 mM phenylmethylsulfonyl fluoride, 2 μg/ml chymostatin, 40 μg/ml bacitracin, 3 mM manganese chloride) at a protein concentration of 1.5 mg/ml and a 100 μl portion of the suspension was used in the reaction. After addition of the sample and 125I-BHSP (0.46 KBq), the reaction was conducted in 0.2 ml of reaction buffer at 25° C. for 30 minutes. The amount of nonspecific binding was determined by adding substance P at a final concentration of 2×10^-6 M. After the reaction, using a cell harvester (290PHD, Cambridge Technology, Inc., England), rapid filtration was carried out through a glass filter (GF/B, Whatman, U.S.A.) to stop the reaction. After washing three times with 250 μl of 50 mM Tris-HCl buffer (pH 7.4) containing 0.02% bovine serum albumin, the radioactivity remaining on the filter was measured with a gamma counter. Before use, the filter was immersed in 0.1% polyethyleneimine for 24 hours and air-dried.
# Sequence of substance P receptor (P25103 whole entry): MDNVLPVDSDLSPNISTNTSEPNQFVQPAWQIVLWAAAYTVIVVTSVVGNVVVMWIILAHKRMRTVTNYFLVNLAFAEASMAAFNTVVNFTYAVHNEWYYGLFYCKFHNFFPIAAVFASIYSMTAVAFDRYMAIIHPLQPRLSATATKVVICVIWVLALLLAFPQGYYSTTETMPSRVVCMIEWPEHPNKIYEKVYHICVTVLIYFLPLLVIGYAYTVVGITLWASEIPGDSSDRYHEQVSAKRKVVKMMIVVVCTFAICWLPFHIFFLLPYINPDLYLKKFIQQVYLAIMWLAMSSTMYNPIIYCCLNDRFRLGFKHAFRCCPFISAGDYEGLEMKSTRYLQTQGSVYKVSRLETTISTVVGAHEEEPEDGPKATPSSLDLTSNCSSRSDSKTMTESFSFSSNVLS
row,IC50 [nM],SMILES
1,20,"Cn1c(C(=O)NCc2ccc(C(F)(F)F)cc2)c(-c2ccccc2)c2ccccc2c1=O [Example 171, 1,2-Dihydro-2-methyl-1-oxo-4-phenyl-N-[4-(trifluoromethyl)benzyl]-3-isoquinolinecarboxamide]"
2,46,"Cc1cccc(C)c1-c1c(C(=O)N(C)Cc2cc(C(F)(F)F)cc(C(F)(F)F)c2)n(C)c(=O)c2ccccc12 [Example 123, N-[3,5-Bis(trifluoromethyl)benzyl]-1,2-dihydro-4-(2,6-dimethylphenyl)-N,2-dimethyl-1-oxo-3-isoquinolinecarboxamide]"
3,78,"COc1ccccc1-c1c(C(=O)NCc2cc(C(F)(F)F)cc(C(F)(F)F)c2)n(C)c(=O)c2ccccc12 [Example 158, N-[3,5-Bis(trifluoromethyl)benzyl]-1,2-dihydro-4-(2-methoxyphenyl)-2-methyl-1-oxo-3-isoquinolinecarboxamide]"
4,130,"Cc1cc2c(-c3ccccc3)c(CC(=O)N(C)Cc3ccccc3Cl)n(C)c(=O)c2cc1C [Example 221, N-(2-Chlorobenzyl)-1,2-dihydro-N,2,6,7-tetramethyl-1-oxo-4-phenyl-3-isoquinolineacetamide]"
5,0.9,"CN(Cc1cc(C(F)(F)F)cc(C(F)(F)F)c1)C(=O)c1c(-c2ccccc2)c2ccccc2oc1=O [Example 250, N-[3,5-Bis(trifluoromethyl)benzyl]-N-methyl-2-oxo-4-phenyl-2H-1-benzopyran-3-carboxamide]"
6,63,"Cn1c(=O)c(C(=O)NCc2cc(C(F)(F)F)cc(C(F)(F)F)c2)c(-c2ccccc2Cl)c2ccccc21 [Example 261, N-[3,5-Bis(trifluoromethyl)benzyl]-4-(2-chlorophenyl)-1,2-dihydro-1-methyl-2-oxo-3-quinolinecarboxamide]"
7,10,"COc1nc2ccccc2c(-c2ccccc2)c1C(=O)N(C)Cc1cc(C(F)(F)F)cc(C(F)(F)F)c1 [Example 270, N-[3,5-Bis(trifluoromethyl)benzyl]-2-methoxy-N-methyl-4-phenyl-3-quinolinecarboxamide]"
8,34,"Cc1ccccc1-c1c(C(=O)N(C)Cc2ccccc2)n(C)c(=O)c2ccccc12 [Example 103, N-Benzyl-1,2-dihydro-N,2-dimethyl-4-(2-methylphenyl)-1-oxo-3-isoquinolinecarboxamide]"
9,2,"CN(Cc1cc(C(F)(F)F)cc(C(F)(F)F)c1)C(=O)c1c(-c2ccccc2C(F)(F)F)c2ccccc2c(=O)n1C [Example 182, N-[3,5-Bis(trifluoromethyl)benzyl]-1,2-dihydro-N,2-dimethyl-1-oxo-4-(2-trifluoromethylphenyl)-3-isoquinolinecarboxamide]"
10,0.68,"Cc1nc2ccccc2c(-c2ccccc2)c1C(=O)N(C)Cc1cc(C(F)(F)F)cc(C(F)(F)F)c1 [Example 267, N-[3,5-Bis(trifluoromethyl)benzyl]-N,2-dimethyl-4-phenyl-3-quinolinecarboxamide]"
11,24,"Cn1c(C(=O)NCc2cc(C(F)(F)F)cc(C(F)(F)F)c2)c(-c2ccccc2)c2cc(Cl)ccc2c1=O [Example 173, N-[3,5-Bis(trifluoromethyl)benzyl]-6-chloro-1,2-dihydro-2-methyl-1-oxo-4-phenyl-3-isoquinolinecarboxamide]"
12,12,"COc1ccccc1-c1c(C(=O)N(C)Cc2cc(C(F)(F)F)cc(C(F)(F)F)c2)n(C)c(=O)c2ccccc12 [Example 159, N-[3,5-Bis(trifluoromethyl)benzyl]-1,2-dihydro-4-(2-methoxyphenyl)-N,2-dimethyl-1-oxo-3-isoquinolinecarboxamide]"
13,3,"CN(Cc1cc(C(F)(F)F)cc(C(F)(F)F)c1)C(=O)c1ncc2ccccc2c1-c1ccccc1 [Example 276, N-[3,5-Bis(trifluoromethyl)benzyl]-N-methyl-4-phenyl-3-isoquinolinecarboxamide]"

# Further lines, the compound ahead of its results:
row,SMILES,IC50 [nM]
1,"COc1nc(C(=O)N(C)Cc2cc(C(F)(F)F)cc(C(F)(F)F)c2)c(-c2ccccc2)c2ccccc12 [Example 277, N-[3,5-Bis(trifluoromethyl)benzyl]-1-methoxy-N-methyl-4-phenyl-3-isoquinolinecarboxamide]",54
2,"CN(Cc1cc(C(F)(F)F)cc(C(F)(F)F)c1)C(=O)c1nc(Cl)c2ccccc2c1-c1ccccc1 [Example 275, N-[3,5-Bis(trifluoromethyl)benzyl]-1-chloro-N-methyl-4-phenyl-3-isoquinolinecarboxamide]",1.9
3,"CN(Cc1cc(C(F)(F)F)cc(C(F)(F)F)c1)C(=O)c1c(-c2ccccc2C(F)(F)F)c2ccccc2oc1=O [Example 256, N-[3,5-Bis(trifluoromethyl)benzyl]-N-methyl-2-oxo-4-(2trifluoromethylphenyl)-2H-1-benzopyran-3-carboxamide]",4.4
4,"COc1ccccc1CN(C)C(=O)c1c(-c2ccccc2)c2ccccc2c(=O)n1C [Example 108, 1,2-Dihydro-N-(2-methoxybenzyl)-N,2-dimethyl-1-oxo-4-phenyl-3-isoquinolinecarboxamide]",30
5,"Cc1cc(F)ccc1-c1c(C(=O)NCc2cc(C(F)(F)F)cc(C(F)(F)F)c2)n(C)c(=O)c2ccccc12 [Example 175, N-[3,5-Bis(trifluoromethyl)benzyl]-4-(4-fluoro-2-methylphenyl)-1,2-dihydro-2-methyl-1-oxo-3-isoquinolinecarboxamide]",6.2
6,"Cc1nc2ccccc2c(-c2ccccc2)c1C(=O)NCc1cc(C(F)(F)F)cc(C(F)(F)F)c1 [Example 266, N-[3,5-Bis(trifluoromethyl)benzyl]-2-methyl-4-phenyl-3-quinolinecarboxamide]",8.2
7,"CN(Cc1cc(C(F)(F)F)cc(C(F)(F)F)c1)C(=O)c1[nH]c(=O)c2ccccc2c1-c1ccccc1 [Example 172, N-[3,5-Bis(trifluoromethyl)benzyl]-1,2-dihydro-N-methyl-1-oxo-4-phenyl-3-isoquinolinecarboxamide]",0.5
8,"Cc1ccccc1-c1c(C(=O)N(C)Cc2ccccc2Cl)n(C)c(=O)c2ccccc12 [Example 105, N-(2-Chlorobenzyl)-1,2-dihydro-N,2-dimethyl-4-(2-methylphenyl)-1-oxo-3-isoquinolinecarboxsmide]",19
9,"CN(Cc1cc(C(F)(F)F)cc(C(F)(F)F)c1)C(=O)c1c(-c2ccccc2)c2ccccc2c(=O)n1CC[N+](C)(C)C [Example 282, N-[3,5-Bis(trifluoromethyl)benzyl]-1,2-dihydro-N-methyl-1-oxo-4-phenyl-2-[2-(N,N,N-trimethylammonium)ethyl]-3-isoquinolinecarboxamide]",22
10,"O=C(NCc1cc(C(F)(F)F)cc(C(F)(F)F)c1)c1oc(=O)c2ccccc2c1-c1ccc(F)cc1 [Example 245, N-[3,5-Bis(trifluoromethyl)benzyl]-4-(4-fluorophenyl)-1-oxo-1H-2-benzopyran-3-carboxamide]",59
11,"Cn1c(C(=O)NCc2cc(C(F)(F)F)cc(C(F)(F)F)c2)c(-c2ccccc2C(F)(F)F)c2ccccc2c1=O [Example 181, N-[3,5-Bis(trifluoromethyl)benzyl]-1,2-dihydro-2-methyl-1-oxo-4-(2-trifluoromethylphenyl)-3-isoquinolinecarboxamide]",31
12,"CN(Cc1cc(C(F)(F)F)cc(C(F)(F)F)c1)C(=O)[C@H]1[C@H](c2ccc(F)cc2)c2ccccc2C(=O)N1C (relative stereo) [Example 280, 3,4-trans-N-[3,5-Bis(trifluoromethyl)benzyl]-4-(4-fluorophenyl)-1,2,3,4-tetrahydro-N,2-dimethyl-1-oxo-3-isoquinolinecarboxamide]",58
13,"COc1ccccc1CCOCc1c(-c2ccccc2)c2cc(C)c(C)cc2c(=O)n1C [Example 207, 1,2-Dihydro-2,6,7-trimethyl-1-oxo-4-phenyl-3-isoquinolinemethyl 2-(2-methoxyphenyl)ethyl ether]",110
14,"Cc1ccccc1-c1c(C[S+]([O-])Cc2cc(C(F)(F)F)cc(C(F)(F)F)c2)n(C)c(=O)c2ccccc12 (centres unmarked) [Example 218, 3,5-Bis(trifluoromethyl)benzyl 1,2-dihydro-2-methyl-4-(2-methylphenyl)-1-oxo-3-isoquinolinemethyl sulfoxide]",23
15,"CN(Cc1cc(C(F)(F)F)cc(C(F)(F)F)c1)C(=O)c1c(-c2ccccc2)c2cc(Cl)ccc2oc1=O [Example 249, N-[3,5-Bis(trifluoromethyl)benzyl]-6-chloro-N-methyl-2-oxo-4-phenyl-2H-1-benzopyran-3-carboxamide]",17
16,"COc1cc(CNCc2c(-c3ccccc3)c3ccccc3c(=O)n2C)cc(OC)c1OC [Example 205, 1,2-Dihydro-2-methyl-1-oxo-4-phenyl-N-(3,4,5-trimethoxybenzyl)-3-isoquinolinemethylamine]",22
